Patent US11124523B2, “2,6-dioxaspiro [4,5] decane derivatives and preparation method therefor and pharmaceutical applications thereof” (SHANDONG LUYE PHARMACEUTICAL CO., LTD., priority 2017, dated 2021)
Structures can show the parent of a compound that is named as a salt. Where two headings read alike, the source gives them in different places.

Legend:
[1] = biological target: human μ-subtype opioid receptor (hMOR) (Homo sapiens (Human), UniProt P35372); experiment: MOR β-arrestin-2 agonist activity test; type: cell-based; settings: for Emax: maximum effect of enkephalin DAMGO was 100%, about 0% = no actual agonist activity
Protocol: Test 2: β-Arrestin-2 Agonist Activity Test
2.1 Experimental Purpose: To test the β-arrestin-2 agonist activity of the compounds of the present disclosure on the human μ-subtype opioid receptor (hMOR).
a. All samples were dissolved in DMSO to a storage concentration of 10 mM.
b. A series of diluted samples were formulated on a 384-well LDV plate. A total of 11 concentration points were obtained by 3.162-fold gradient dilution.
c. The series of diluted samples were transferred to an experimental plate by using an Echo machine, wherein 60 nL of the compound was transferred corresponding to each well.
d. 60 nL of 3.33 mM DAMGO (as HPE) and 60 nL of DMSO (as ZPE) were transferred to the corresponding positions on the experimental plate by using the Echo machine.
The experiment was performed using PathHunter Detection Kit from DiscoveRX Cooperation (DiscoveRX #93-0213C3)
a. Assay buffer and PathHunter detection reagent required for the experiment were formulated.
Assay Buffer: 1×DPBS buffer
PathHunter Detection Reagent: The kit was provided therein with three constituents.
c. The experimental plate was centrifuged at 300 rpm for 30 s and incubated at room temperature for 2 hours.
d. 6 μL of the PathHunter detection reagent was added to each well of the experimental plate.
e. The experimental plate was centrifuged at 300 rpm for 30 seconds, then left at room temperature for 60 minutes, and then read on the Envision.

hERG potassium channels = hERG potassium channels (Homo sapiens (Human), UniProt Q12809); experiment: Effects on hERG potassium channels (Qpatch, CHO-hERG cells); type: cell-based; settings: highest test concentration 40 μM, read-out: IC50 representing the blocking effects of hERG potassium currents
hERG potassium channels, sequence (Q12809 whole entry): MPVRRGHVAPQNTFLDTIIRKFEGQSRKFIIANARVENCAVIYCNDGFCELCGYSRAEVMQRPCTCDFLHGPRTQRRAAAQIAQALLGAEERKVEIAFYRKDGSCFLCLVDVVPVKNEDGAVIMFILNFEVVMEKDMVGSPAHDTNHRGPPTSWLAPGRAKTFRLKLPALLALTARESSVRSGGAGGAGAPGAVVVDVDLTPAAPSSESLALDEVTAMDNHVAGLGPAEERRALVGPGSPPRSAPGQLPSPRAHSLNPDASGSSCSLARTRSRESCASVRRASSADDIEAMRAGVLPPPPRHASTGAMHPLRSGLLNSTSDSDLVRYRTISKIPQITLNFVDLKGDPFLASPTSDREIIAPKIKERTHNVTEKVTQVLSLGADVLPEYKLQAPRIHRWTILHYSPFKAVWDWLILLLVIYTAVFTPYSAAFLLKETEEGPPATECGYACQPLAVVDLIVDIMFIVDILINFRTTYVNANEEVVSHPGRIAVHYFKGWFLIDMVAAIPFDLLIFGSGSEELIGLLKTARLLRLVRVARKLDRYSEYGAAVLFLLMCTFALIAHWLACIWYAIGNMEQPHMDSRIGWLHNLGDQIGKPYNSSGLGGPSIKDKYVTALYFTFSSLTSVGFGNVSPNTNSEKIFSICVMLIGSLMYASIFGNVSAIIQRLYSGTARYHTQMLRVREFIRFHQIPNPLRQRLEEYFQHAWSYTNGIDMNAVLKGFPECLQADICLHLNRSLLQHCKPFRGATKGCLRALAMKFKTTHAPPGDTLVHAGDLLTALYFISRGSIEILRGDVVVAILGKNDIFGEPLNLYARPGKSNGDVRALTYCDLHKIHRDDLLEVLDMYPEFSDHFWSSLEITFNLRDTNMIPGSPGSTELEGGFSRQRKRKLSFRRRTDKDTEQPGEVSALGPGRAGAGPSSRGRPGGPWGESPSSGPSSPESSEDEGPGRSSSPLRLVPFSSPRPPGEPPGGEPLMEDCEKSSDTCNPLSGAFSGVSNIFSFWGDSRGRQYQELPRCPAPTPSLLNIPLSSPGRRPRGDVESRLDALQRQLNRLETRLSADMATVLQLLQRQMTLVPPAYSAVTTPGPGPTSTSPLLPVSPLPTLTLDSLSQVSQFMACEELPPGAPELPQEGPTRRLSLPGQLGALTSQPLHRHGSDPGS
Protocol: 5.1 Experimental Purpose: To test the blocking effects of the compounds of the present disclosure on hERG potassium currents.
a. CHO-hERG cells were cultured in a 175 cm^2 culture flask. When the cells were grown to a density of 60 to 80%, the culture solution was removed, and the cells were washed once with 7 mL of PBS (phosphate buffer solution), and then 3 mL of a cell digestion solution (Detachin) was added for digestion of the cells.
b. After completely digested, the cells were neutralized by adding 7 mL of the culture solution and then centrifuged, the supernatant was removed, and then 5 mL of the culture solution was added for resuspension to ensure a cell density of 2 to 5×10^6 cells/mL.
The single-cell high-impedance sealing and whole-cell pattern formation processes were both carried out automatically by the Qpatch instrument. After the whole-cell recording pattern was obtained, the cells were clamped at −80 millivolts. A preceding voltage of −50 millivolts was applied for 50 milliseconds prior to application of a depolarizing stimulus of +40 millivolts for 5 seconds, and then the cells were repolarized to −50 millivolts and maintained for 5 seconds and then returned back to −80 millivolts. This voltage stimulation was applied every 15 seconds, and data were recorded for 2 minutes, and thereafter the extracellular fluid was administered and data were recorded for 5 minutes, and then the administration process was started. The compound was administered for 2.5 minutes at each test concentration from the lowest test concentration. After all the concentrations of the compound were administered, […] of Cisapride was administered as a positive comparative compound. At least three cells (n>3) were tested for each concentration.
a. A 20 mM compound mother solution was diluted with the extracellular fluid, wherein 5 μL of the 20 mM compound mother solution was taken and diluted 500 times to 40 μM by adding 2495 μL of the extracellular fluid thereto, and then 3-fold serial dilutions were performed sequentially in the extracellular fluid containing 0.2% DMSO to obtain a final concentration to be tested.
b. The highest test concentration was 40 μM, and there were six concentrations in total, i.e., 40, 13.33, 4.44, 1.48, 0.49, and 0.16 μM, respectively.
c. The DMSO content in the final test concentration was not more than 0.2%. This concentration of DMSO had no effect on the hERG potassium channel.
The experimental data were analyzed by XLFit software.

[2] = Metabolic stability in liver microsomes; type: in vitro ADME; settings: pH 7.4; human liver microsomes 0.5 mg protein/mL; 45 mg microsome protein/g liver, 20 g liver/kg; read-out: Intrinsic Clearance CLint(liver) in Human Liver
Protocol: Test 3: Metabolic Stability in Liver Microsomes
3.1 Experimental Purpose: To test the metabolic stability of the compounds of the present disclosure in human liver microsomes
a. All samples as well as testosterone, diclofenac and propafenone acting as reference substances were dissolved in DMSO to a storage concentration of 10 mM.
b. Intermediate Solution: 5 μL of the substance to be tested or the reference substance was diluted with 45 μL of DMSO (with 450 μL of 1:1 methanol/water).
c. Working Solution: the intermediate solution was diluted with 450 μL of 100 mM potassium phosphate buffer solution (pH 7.4).
Assay Buffer: 100 mM potassium phosphate buffer (pH 7.4) • 10 mM MgCl2
Liver Microsome Solution (final concentration: 0.5 mg protein/mL):
Human liver microsomes, obtained from BD, Cat No. 452117, Lot No. 38291
b. 10 μL of the working solution containing the substance to be tested or the reference substance was added to each of plates (T0, T5, T10, T20, T30, T60, NCF60).
c. The liver microsome solution was dispensed into a 96-well plate in an amount of 680 μL/well, then 80 was added, and then T was added to each of the plates. The above incubation plate was placed at 37° C. and pre-incubated for approximately 10 minutes.
d. 10 μL of 100 mM potassium phosphate buffer was added to each well in the NCF60 plate.
e. After the pre-incubation was finished, the NADPH regeneration system working solution was dispensed into the 96-well plate in an amount of 90 μL/well, and then added to each of the plates in an amount of 10 μL/well to start the reaction.
f. The plates were incubated for an appropriate time (e.g., 5, 10, 20, 30, or 60 minutes).
g. The stop solution (refrigerated at 4° C., containing 100 ng/mL Tolbutamide and 100 ng/mL Labetalol) was added to each sample well in an amount of 300 μL/well.
h. The sample plates were shaken well for about 10 minutes and centrifuged at 4,000 rpm for 20 minutes at 4° C. During the centrifugation, 300 μL of HPLC water was added to each well, and 100 μL of the supernatant was taken for LC-MS/MS analysis.
T1/2 and Clint(mic) were calculated by the following formula: […]
Each gram of liver contained 45 mg of microsome protein, and the liver weight was 20 g/kg in a human.
Ct was the concentration at time t, t was the incubation time, C0 was the concentration at time 0, Ke was an elimination rate constant, Clint(mic) was the intrinsic clearance in liver microsomes, and Clint(liver) was the intrinsic clearance in liver. CLint(mic)=0.693/half-life/mg of microsome protein per mL(concentration of microsomes during incubation) CLint(liver)=CLint(mic)×mg of microsome protein/g of liver weight×a ratio of liver weight to body weight 3.4 Test Results

[3] = >30000 nM = greater than the highest detection concentration, read-out: MOR β-arrestin-2 EC50

| SMILES | EC50 [1, 3] [µM] | Emax [1] [%] | IC50 (hERG potassium channels) [µM] | CLint scaled [2] [mL/min/kg] | EC50 [1] [µM] |
| --- | --- | --- | --- | --- | --- |
| c1ccc([C@]2(CCNCc3scc4c3CCC4)CCO[C@]3(CCOC3)C2)nc1 [(+)-2] | > 30 | ~0 | > 40 | 49 | – |
| Fc1ccc([C@]2(CCNCc3cccc(Cl)c3)CCO[C@]3(CCOC3)C2)nc1 [(+)-16] | > 30 | ~0 | – | 29.2 | – |
| Cc1cccc(CNCC[C@@]2(c3ccc(F)cn3)CCO[C@]3(CCOC3)C2)c1 [Hydrochloride Salt of (+)-22] | – | ~0 | 18.8 | 13.5 | > 30 |
| Fc1ccc([C@]2(CCNCc3cccc(F)c3)CCO[C@]3(CCOC3)C2)nc1 [Hydrochloride Salt of (+)-23] | > 30 | ~0 | – | 15.6 | – |
| COc1ccsc1CNCC[C@@]1(c2ccccn2)CCOC2(CCCC2)C1 [compound 1, Oliceridine, reference compound] | – | 4.5 | 5.5 | 314 | – |
